Experimental data as given in PMC11120408 (Foods, 2024).

Assays:
Format in all cases: biochemical, bovine
[1] = biological target: T1, BSA–fructose (Fru) system (Bos taurus, UniProt P02769); test: Surface hydrophobicity of glycated BSA (BPB, ANS)
[2] = biological target: T1, BSA–fructose (Fru) system; test: Structural analysis of glycated BSA (CD, ThT cross-β structure)
Experimental: The changes in the secondary structures of the proteins were determined using the CD spectroscopy method on a New MOS-450 spectropolarimeter (Biologic, Seyssinet-Pariset, France). The spectra were collected over the far-UV range of 200–260 nm using a quartz cell (with an inner diameter of 1 mm) under an atmosphere of nitrogen at room temperature. Each spectrum was the average of at least three consecutive scans at a scan speed of 100 nm min^−1 with a bandwidth of 1 nm, and it was corrected for the buffer signal. The proportion of different secondary structures was calculated using the online CONTIN program (http://dichroweb.cryst.bbk.ac.uk/html/home.shtml, accessed on 4 April 2023).
The secondary structure contents of BSA before and after glycosylation were determined using CD measurement referring to the experimental procedure in Section 2.3.2.
As a popular fluorescent probe for protein aggregation, thioflavin T (ThT) was used for the detection of the amyloid β-structure of glycated BSA [29, 30]. The samples were treated with ThT (a final concentration of 0.016 mg mL^−1) at room temperature for 1 h in the dark. The ThT fluorescence intensity (excitation: 435 nm; emission: 485 nm) of the sample was recorded on a spectrofluorometer.

[3] = biological target: T1, BSA–fructose (Fru) system; test: Total carbonyl and thiol group content of glycated BSA; details: 0.200 mg mL^−1
Experimental: A reported method was adopted and a slight modification was made to determine the protein carbonyl group content (PCO). Briefly, 100 μL of native BSA solution or sample solution acquired in Section 2.4.1 was incubated with DNPH solution (400 μL, 10 mM, dissolved in 2.0 M HCl) for 1 h at room temperature, with vortexing every 10 min. The sample solution without DNPH was regarded as the blank group. Then, 1000 μL of trichloroacetic acid (TCA) solution (20% (w/v)) was added, and the resulting mixture was kept at 277 K for 10 min, followed by centrifugation (10,000 rpm, 10 min, 277 K). The residue was extracted with ethanol/ethyl acetate (1:1, v/v) three times, and subsequently suspended and mixed thoroughly in 1000 μL of guanidine hydrochloride (6.0 M, pH 6.6), followed by incubating at 310 K for 15 min. The UV absorbance was recorded at 370 nm on an Infinite® M200 PRO plate reader (Tecan, Männedorf, Switzerland). The total protein carbonyl group content was calculated using the following equation:(4) PCO(nmol/mg protein)=Asample−AblankVreaction/ε1dVsampleCpro×1000 where Asample and Ablank are the absorbances of a tested sample with or without DNPH, respectively. ε1 represents the absorption coefficient of 22,000 M^−1cm^−1, and d is the cuvette length (0.5 cm). […]
The content of the free SH group was assessed using Ellman’s method with slight changes. […]

[4] = biological target: T1, BSA–fructose (Fru) system; test: Anti-glycation: glycation products in BSA–Fru system; details: 0.200 mg mL^−1; end stage
Experimental: Considering that Monascus pigments (MPs) are usually applied in the form of a mixture, the extract of Monascus-fermented rice (a high content of six known Monascus pigments, Figure S2) was selected to evaluate the anti-glycation capacity of MPs in a reaction in vitro using BSA as a model protein glycation by Fru. Briefly, BSA and Fru were dissolved in PBS solution of pH 7.4, and their final concentrations were 10.0 mg mL^−1 and 0.5 M, respectively. Then, a series of MPs were added into the above system with final concentrations of 0.005, 0.025, 0.050, 0.100, 0.150, and 0.200 mg mL^−1. After filtered through a sterile 0.22 μm membrane, the reaction mixture was incubated at 323 K for 24 h. The glycosylation products, namely fructosamine (in the early stage), α-dicarbonyl compounds (in the middle stage), and fluorescent AGEs (in the end stage), were detected according to our previous report. Here, AG was a positive control.

T1 sequence (P02769 25-607): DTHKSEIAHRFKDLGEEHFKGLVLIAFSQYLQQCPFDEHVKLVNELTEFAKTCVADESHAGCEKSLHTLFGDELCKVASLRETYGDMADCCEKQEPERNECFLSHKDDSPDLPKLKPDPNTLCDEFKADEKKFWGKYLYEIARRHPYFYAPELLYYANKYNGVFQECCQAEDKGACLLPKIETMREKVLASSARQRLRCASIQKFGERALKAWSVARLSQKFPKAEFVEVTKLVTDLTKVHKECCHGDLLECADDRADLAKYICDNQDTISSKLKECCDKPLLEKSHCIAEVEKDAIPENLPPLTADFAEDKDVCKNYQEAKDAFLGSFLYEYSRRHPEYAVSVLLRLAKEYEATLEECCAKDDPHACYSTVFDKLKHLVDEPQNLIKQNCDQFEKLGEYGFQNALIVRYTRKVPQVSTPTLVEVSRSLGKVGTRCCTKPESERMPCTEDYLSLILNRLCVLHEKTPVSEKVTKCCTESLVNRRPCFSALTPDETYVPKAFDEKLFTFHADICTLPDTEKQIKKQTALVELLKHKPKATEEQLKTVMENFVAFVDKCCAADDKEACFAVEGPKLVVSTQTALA

N=C(N)NN [AG, aminoguanidine]
change of ANS fluorescence intensity of glycated BSA ([1]; ANS binding): increased slightly | change of BPB content bound to glycated BSA (surface hydrophobicity) ([1]; BPB binding): increased | inhibition rate against generation of cross-β structure (ThT) ([2]; 0.005 mg mL^−1): 27.6% | inhibition rate against generation of cross-β structure (ThT) ([2]; 0.200 mg mL^−1): 41.4% | α-helical structure content of treated glycated BSA (CD) ([2]; glycated BSA 47.8%, native BSA 67.6%): 58.3% | free SH group content of glycated BSA after treatment ([3]; glycated BSA 2.3, native BSA 3.6): 2.7 µmol/g | carbonyl group content of glycated BSA after treatment ([3]; glycated BSA 35.6, native BSA 2.5): 15.7 nmol/mg | inhibition rate of fluorescent AGE formation [4]: 75.7%
